The kinase profiling compilation of Christmann-Franck et al. (2016)

How the values were obtained:
Test in all cases: radiometric filter-binding kinase assay, Kinase HotSpot
Settings in all cases: compound 0.5 µM; ATP 10 µM
[1] = biological target: SLK (human) (UniProt Q9H2G2)
[2] = biological target: CSNK1A1 (human) (UniProt P48729)
[3] = biological target: MERTK (human) (UniProt Q12866)
[4] = biological target: TSSK2 (human) (UniProt Q96PF2)
[5] = biological target: SRC (human) (UniProt P12931)
[6] = biological target: GSK3A (human) (UniProt P49840)
[7] = biological target: CDK7 CCNH MNAT1 (human) (UniProt P50613+P51948+P51946)
[8] = biological target: DYRK1A (human) (UniProt Q13627)
[9] = biological target: RPS6KA5 KD2 (human) (UniProt O75582)
[10] = biological target: EPHB4 (human) (UniProt P54760)
EPHB4 (human), sequence (P54760 whole entry, looked up): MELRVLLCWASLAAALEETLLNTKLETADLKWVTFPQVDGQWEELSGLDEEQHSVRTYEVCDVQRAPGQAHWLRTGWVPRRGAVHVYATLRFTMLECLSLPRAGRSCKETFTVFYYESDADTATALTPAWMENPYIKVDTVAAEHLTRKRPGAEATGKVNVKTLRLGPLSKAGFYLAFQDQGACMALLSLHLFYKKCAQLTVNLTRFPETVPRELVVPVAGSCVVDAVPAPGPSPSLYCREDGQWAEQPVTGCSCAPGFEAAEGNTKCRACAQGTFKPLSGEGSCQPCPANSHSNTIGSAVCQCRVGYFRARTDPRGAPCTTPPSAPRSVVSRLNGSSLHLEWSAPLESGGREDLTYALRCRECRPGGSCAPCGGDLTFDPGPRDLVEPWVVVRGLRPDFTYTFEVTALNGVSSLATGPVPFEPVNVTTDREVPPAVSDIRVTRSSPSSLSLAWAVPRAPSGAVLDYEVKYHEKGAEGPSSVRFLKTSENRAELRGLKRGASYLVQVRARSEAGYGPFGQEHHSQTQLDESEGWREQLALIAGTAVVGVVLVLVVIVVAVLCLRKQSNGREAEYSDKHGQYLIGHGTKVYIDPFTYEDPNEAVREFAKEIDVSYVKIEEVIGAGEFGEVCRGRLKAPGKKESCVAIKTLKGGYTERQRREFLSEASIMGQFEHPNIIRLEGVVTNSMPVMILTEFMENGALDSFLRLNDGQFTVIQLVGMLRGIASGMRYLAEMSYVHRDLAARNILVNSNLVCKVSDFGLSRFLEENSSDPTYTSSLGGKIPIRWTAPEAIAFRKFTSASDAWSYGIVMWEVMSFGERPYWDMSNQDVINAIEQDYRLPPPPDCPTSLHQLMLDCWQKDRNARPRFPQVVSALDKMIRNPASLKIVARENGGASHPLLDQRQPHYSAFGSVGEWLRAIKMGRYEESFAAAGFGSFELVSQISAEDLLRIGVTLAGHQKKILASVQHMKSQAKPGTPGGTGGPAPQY

[11] = biological target: MAP4K5 (human) (UniProt Q9Y4K4)
[12] = biological target: MAP3K2 (human) (UniProt Q9Y2U5)
[13] = biological target: HIPK1 (human) (UniProt Q86Z02)
[14] = biological target: RPS6KA4 KD2 (human) (UniProt O75676)
RPS6KA4 KD2 (human), sequence (O75676 whole entry, looked up): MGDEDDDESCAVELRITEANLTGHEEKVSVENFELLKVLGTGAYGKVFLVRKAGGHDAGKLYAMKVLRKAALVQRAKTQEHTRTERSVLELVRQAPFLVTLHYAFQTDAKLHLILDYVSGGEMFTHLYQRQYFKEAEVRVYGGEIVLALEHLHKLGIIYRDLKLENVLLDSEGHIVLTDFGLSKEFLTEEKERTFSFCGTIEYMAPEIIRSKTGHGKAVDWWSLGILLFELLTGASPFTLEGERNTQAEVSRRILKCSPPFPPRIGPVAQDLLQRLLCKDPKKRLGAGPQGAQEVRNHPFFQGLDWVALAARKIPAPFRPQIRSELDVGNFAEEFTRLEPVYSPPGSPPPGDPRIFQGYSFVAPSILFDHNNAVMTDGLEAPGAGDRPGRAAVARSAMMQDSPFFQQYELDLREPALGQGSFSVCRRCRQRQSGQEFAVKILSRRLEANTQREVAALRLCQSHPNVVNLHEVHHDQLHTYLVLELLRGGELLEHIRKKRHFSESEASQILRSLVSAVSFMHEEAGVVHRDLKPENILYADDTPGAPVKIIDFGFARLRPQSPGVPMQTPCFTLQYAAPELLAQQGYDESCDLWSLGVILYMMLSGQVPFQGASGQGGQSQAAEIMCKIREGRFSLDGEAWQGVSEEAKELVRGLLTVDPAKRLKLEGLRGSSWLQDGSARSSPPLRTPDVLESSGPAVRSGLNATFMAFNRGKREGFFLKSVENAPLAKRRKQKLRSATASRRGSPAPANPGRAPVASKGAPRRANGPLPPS

[15] = biological target: CDK6 CCND3 (human) (UniProt P30281+Q00534)
CDK6 CCND3 (human), sequence (P30281 whole entry, looked up): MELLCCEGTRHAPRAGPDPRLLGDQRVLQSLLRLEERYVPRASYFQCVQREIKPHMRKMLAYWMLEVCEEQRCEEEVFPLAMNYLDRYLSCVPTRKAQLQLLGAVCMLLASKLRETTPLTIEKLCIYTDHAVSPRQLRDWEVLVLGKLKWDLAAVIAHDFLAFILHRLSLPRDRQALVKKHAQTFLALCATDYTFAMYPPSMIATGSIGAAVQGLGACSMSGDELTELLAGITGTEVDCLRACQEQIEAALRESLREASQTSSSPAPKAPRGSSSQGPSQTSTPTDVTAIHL
CDK6 CCND3 (human), sequence (Q00534 whole entry, looked up): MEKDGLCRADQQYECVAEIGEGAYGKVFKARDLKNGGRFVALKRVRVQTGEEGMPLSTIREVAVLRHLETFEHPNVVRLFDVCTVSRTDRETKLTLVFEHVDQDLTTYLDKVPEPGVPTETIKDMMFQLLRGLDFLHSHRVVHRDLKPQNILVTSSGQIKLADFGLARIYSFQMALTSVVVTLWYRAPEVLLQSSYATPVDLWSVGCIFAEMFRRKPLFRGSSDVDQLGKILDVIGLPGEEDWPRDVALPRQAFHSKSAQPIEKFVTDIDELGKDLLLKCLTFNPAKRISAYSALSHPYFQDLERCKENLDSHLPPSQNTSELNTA

[16] = biological target: TEC (human) (UniProt P42680)
[17] = biological target: BRSK2 (human) (UniProt Q8IWQ3)
[18] = biological target: EPHA4 (human) (UniProt P54764)
[19] = biological target: FYN (human) (UniProt P06241)
[20] = biological target: RPS6KA2 KD1 KD2 (human) (UniProt Q15349)
[21] = biological target: PLK2 (human) (UniProt Q9NYY3)
[22] = biological target: PTK2B (human) (UniProt Q14289)
PTK2B (human), sequence (Q14289 whole entry, looked up): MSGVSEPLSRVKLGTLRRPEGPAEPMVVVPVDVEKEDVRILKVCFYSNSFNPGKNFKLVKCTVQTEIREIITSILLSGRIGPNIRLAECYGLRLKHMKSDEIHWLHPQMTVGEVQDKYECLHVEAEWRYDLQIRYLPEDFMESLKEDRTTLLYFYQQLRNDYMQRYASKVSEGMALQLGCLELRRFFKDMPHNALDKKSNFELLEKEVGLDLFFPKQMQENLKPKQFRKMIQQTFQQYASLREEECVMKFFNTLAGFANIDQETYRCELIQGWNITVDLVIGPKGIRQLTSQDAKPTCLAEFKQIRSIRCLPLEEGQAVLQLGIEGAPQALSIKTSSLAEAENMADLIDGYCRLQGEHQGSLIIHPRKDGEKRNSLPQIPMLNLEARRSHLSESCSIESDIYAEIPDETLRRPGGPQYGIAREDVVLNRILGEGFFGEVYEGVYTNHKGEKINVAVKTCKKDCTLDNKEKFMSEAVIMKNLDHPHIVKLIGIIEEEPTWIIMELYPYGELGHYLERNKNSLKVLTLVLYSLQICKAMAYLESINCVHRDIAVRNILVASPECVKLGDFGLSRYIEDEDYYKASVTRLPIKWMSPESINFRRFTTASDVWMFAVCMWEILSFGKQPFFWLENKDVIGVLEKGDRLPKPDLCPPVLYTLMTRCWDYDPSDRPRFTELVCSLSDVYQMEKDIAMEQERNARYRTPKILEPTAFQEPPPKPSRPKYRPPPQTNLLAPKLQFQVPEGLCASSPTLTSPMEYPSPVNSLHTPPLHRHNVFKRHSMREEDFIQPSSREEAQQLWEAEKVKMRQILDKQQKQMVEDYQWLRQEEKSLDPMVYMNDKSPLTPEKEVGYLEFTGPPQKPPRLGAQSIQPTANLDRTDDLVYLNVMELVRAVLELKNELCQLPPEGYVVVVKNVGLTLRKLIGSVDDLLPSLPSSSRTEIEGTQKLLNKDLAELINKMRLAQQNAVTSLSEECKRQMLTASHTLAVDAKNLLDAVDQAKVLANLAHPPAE

[23] = biological target: CDK9 CCNK (human) (UniProt O75909+P50750)
[24] = biological target: CAMK2G (human) (UniProt Q13555)
[25] = biological target: NEK4 (human) (UniProt P51957)
[26] = biological target: CDK3 CCNE1 (human) (UniProt Q00526+P24864)
CDK3 CCNE1 (human), sequence (P24864 whole entry, looked up): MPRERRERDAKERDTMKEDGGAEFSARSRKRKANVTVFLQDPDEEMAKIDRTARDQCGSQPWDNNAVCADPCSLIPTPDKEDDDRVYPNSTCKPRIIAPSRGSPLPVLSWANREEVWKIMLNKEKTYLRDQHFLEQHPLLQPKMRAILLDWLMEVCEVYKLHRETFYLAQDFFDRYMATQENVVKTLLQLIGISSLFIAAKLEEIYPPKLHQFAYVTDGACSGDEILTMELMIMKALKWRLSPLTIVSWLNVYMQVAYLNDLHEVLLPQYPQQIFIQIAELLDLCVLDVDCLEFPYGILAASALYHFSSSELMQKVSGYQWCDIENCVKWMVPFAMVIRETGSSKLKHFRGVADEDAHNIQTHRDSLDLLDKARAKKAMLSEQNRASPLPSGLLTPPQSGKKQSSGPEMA
CDK3 CCNE1 (human), sequence (Q00526 whole entry, looked up): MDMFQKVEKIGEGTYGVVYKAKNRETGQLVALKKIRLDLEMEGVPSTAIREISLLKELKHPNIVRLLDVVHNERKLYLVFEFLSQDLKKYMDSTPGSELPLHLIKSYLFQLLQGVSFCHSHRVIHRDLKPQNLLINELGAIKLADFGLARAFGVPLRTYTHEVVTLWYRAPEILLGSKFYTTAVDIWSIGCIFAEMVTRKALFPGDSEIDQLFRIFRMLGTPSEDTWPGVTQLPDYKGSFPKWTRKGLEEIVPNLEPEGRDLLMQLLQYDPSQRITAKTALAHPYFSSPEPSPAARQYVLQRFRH

[27] = biological target: ABL1 (human) (UniProt P00519)
[28] = biological target: NEK11 (human) (UniProt Q8NG66)
[29] = biological target: CAMK2D (human) (UniProt Q13557)
[30] = biological target: WNK2 (human) (UniProt Q9Y3S1)
[31] = biological target: ACVRL1 (human) (UniProt P37023)
[32] = biological target: TAOK2 (human) (UniProt Q9UL54)
[33] = biological target: MAP3K10 (human) (UniProt Q02779)
[34] = biological target: FGFR2 (human) (UniProt P21802)
[35] = biological target: CLK1 (human) (UniProt P49759)
[36] = biological target: MAP2K2 (human) (UniProt P36507)
[37] = biological target: CAMK1G (human) (UniProt Q96NX5)
[38] = biological target: CSF1R (human) (UniProt P07333)
[39] = biological target: CDK6 CCND1 (human) (UniProt Q00534+P24385)
CDK6 CCND1 (human), sequence (P24385 whole entry, looked up): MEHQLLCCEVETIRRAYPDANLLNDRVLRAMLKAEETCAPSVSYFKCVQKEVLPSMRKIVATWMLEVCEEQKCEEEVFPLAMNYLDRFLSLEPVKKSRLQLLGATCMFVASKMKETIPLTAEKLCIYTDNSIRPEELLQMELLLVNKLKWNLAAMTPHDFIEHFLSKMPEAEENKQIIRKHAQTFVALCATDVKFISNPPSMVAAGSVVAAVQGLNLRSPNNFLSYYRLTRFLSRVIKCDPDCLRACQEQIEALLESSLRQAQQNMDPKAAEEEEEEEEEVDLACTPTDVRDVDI
CDK6 CCND1 (human), sequence (Q00534 whole entry, looked up): as the sequence (Q00534 whole entry, looked up) above

[40] = biological target: PTK6 (human) (UniProt Q13882)
PTK6 (human), sequence (Q13882 whole entry, looked up): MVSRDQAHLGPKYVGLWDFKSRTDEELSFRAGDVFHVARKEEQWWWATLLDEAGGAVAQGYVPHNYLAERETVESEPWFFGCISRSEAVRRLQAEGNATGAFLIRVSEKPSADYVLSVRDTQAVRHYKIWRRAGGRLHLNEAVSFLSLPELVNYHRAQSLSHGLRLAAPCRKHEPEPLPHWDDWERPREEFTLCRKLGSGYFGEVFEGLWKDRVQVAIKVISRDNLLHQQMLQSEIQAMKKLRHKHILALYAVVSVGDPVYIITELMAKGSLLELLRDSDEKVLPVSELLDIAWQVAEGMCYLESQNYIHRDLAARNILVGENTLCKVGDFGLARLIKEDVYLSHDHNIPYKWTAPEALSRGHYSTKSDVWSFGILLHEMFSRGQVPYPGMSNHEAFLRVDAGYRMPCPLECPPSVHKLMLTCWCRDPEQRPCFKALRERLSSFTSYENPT

[41] = biological target: SRMS (human) (UniProt Q9H3Y6)

Compound: O=C1NC(=O)c2c1c1c3ccccc3n3c1c1c2c2ccccc2n1C1CCC3O1
- residual activity [1]: 26%
- residual activity [2]: 104%
- residual activity [3]: 13.6%
- residual activity [4]: 87.1%
- residual activity [5]: 69.5%
- residual activity [6]: 2.19%
- residual activity [7]: 80.4%
- residual activity [8]: 8.74%
- residual activity [9]: 9.88%
- residual activity [10]: 75.4%
- residual activity [11]: 2.69%
- residual activity [12]: 14%
- residual activity [13]: 93.6%
- residual activity [14]: 12.4%
- residual activity [15]: 19.9%
- residual activity [16]: 142%
- residual activity [17]: 13.6%
- residual activity [18]: 91.4%
- residual activity [19]: 59.9%
- residual activity [20]: 1.33%
- residual activity [21]: 62.4%
- residual activity [22]: 41.5%
- residual activity [23]: 15.8%
- residual activity [24]: 8.36%
- residual activity [25]: 22%
- residual activity [26]: 71.5%
- residual activity [27]: 72.7%
- residual activity [28]: 60.6%
- residual activity [29]: 7.03%
- residual activity [30]: 93.6%
- residual activity [31]: 78.6%
- residual activity [32]: 57.4%
- residual activity [33]: 2.66%
- residual activity [34]: 34.1%
- residual activity [35]: 43.1%
- residual activity [36]: 87.9%
- residual activity [37]: 56.5%
- residual activity [38]: 29.3%
- residual activity [39]: 6.06%
- residual activity [40]: 83.9%
- residual activity [41]: 105%
